Reference: patent US11472807B2, “Purine derivatives for use as medicament and for use in treating neurodegenerative or neuro-inflammatory disorders” (COMMISSARIAT À L'ENERGIE ATOMIQUE ET AUX ENERGIES …, priority 2017, dated 2022)

Key:
[1] = test system: extracellular Aβ (Aβ1-38, Aβ1-40, Aβ1-42); assay: Extracellular Aβ production in organotypic hippocampal slice cultures (MSD sandwich immunoassay); format: cell-based, mice
Procedure: Organotypic hippocampal slice cultures (OHSC) were prepared from newborn (P0-P3) C57B16 or for transgenic 3×Tg-AD mice and were cultured according the interface method (Gogolla et al., 2006). OHSC were kept for 7 days in vitro (div) at 37° C. in a humidified atmosphere (5% CO2) before treatment. Medium was changed every other day.
For acute exposure, neurons were exposed to various concentration of Aftin-5 for 18 hours for acute exposure. […]
All Aβ peptides assays in the samples were performed using V-PLEX Aβ Peptide Panel 1 (4G8) Kit (MSD Technologies_K15199E-1). All plates were read on the SECTOR Imager 2 400 (MSD Technologies). The Aβ peptides assay is based on the principle of the sandwich immunoassay. All assays have followed strictly the protocol kit and all reagents were from Meso Scale Discovery. Briefly, a 96-well plate having 4 spots pre-coated with the corresponding antibodies is provided by MSD Technology (4-spot MULTI-SPOT plates). Before adding the samples, a first saturation step is required. Once the plate is satured and washed, 25 μL of sample (or calibrators) per well are loaded, then 25 μL of the Detection Antibody solution (MSD SULFO-TAG). The plate is incubated for 2 hours. At the end of the incubation, the plate is washed and then a chemical solution (Read buffer 2×) is added allowing electrochemiluminescence. After a short incubation (5 min) at room temperature, the plate is read on the SECTOR Imager 2400. The instrument measures the intensity of the light electrochemiluminescence.

[2] = test system: IGF-1R (insulin growth factor receptor 1); assay: IGF-1R mRNA in OHSC (RT-qPCR); format: cell-based, mice; settings: 50 μM for 10 days, P=0.0845
Procedure: (§1) FIG. 12. Plots illustrating the effect of Aftin-5 on relative mRNA expression levels of murine insulin-like growth factor-1 receptor (IGF1-R; (A)) and murine insulin receptor (Insr; (B)) in organotypic hippocampal slice cultures (OHSC). OHSC culture media of OHSC were replaced by incubation medium containing Aftin-5 (50 μM; A50) or vehicle (0.1% DMSO; Veh). 10 days later, total mRNA in lysate was isolated and purified, cDNAs were then synthesized from […] of total mRNA. cDNAs were amplified by quantitative RT-PCR and the relative expression of specific genes was normalized to the housekeeping gene HPRT1 (2^−ΔCt) Mann-Whitney tests were performed and *p<0.05 indicates significant differences between Aftin-5 and control conditions. Data expressed as means+/−SEM from q=3 independent experiments with n=4-6 inserts/condition and 10 slices/insert. […]
(§2) The impact of Aftin-5 on gene expression of different biomarkers was determined by measuring mRNA levels of selected BDNF, CREB, PS95, INS Receptor/IGF-1 receptor, IL-1β, IL-6 in OHSC treated chronically with Aftin-5 or in a total brain from mice exposed to Aftin-5 at either 8 or 30 mg/Kg. […] Threshold cycles (Ct) of target gene and cyclophilin A (Ppia−control housekeeping gene) were recorded and gene expression was calculated as 2^−ΔΔCt(ΔΔCt=ΔCttreated−ΔCtcontrol, ΔCt=Cttarget−CtPpia). […]

TNF-α = TNF-α mRNA in OHSC (RT-qPCR); format: cell-based, mice; settings: 50 μM, 10 days
Procedure: as §1, with “FIG. 10.” for “FIG. 12.”, “of interleukin-1-beta (IL-1β; (A)), interleukin-6 (IL-6; (B)), TNF-alpha (TNFα; (C))” for “of murine insulin-like growth factor-1 receptor (IGF1-R; (A))”, “and interleukin-10 (IL-10; (D))” for “and murine insulin receptor (Insr; (B))”, “[…]” for “of OHSC”, “HPRT1 (2^−ΔCt).” for “HPRT1 (2^−ΔCt)”, “and ***p<0.001” for “and *p<0.05”
as §2

[3] = test system: in vitro cell based rat BBB model
[4] = chronic treatment of OHSC (10 days)

- modulation of Aβ1-42/Aβ1-40 ratio induced by Aftin-5 in presence of γ-secretase inhibitor BMS ([1]; OHSC, Aftin-5 50 μM with BMS (10 μM), 10 days): no changes
- IGF-1R mRNA [2]: tend to increase
- Papp compared to Papp value of memantine [3]: not significantly different
SMILES: CC[C@H](CO)Nc1nc(N(C)c2ccccc2)c2ncn(C(C)C)c2n1 [Aftin-5]
- Aβ1-38 [1, 4]: decrease
- Aβ1-40 [1, 4]: remained unchanged
- concentration ratio Aβ1-42/Aβ1-40 [1, 4]: slight but significant increase
- production of Aβ1-42 ([1]; chronic treatment of OHSC (10 days), P<0.0001): increase
- TNF-α mRNA synthesis (TNF-α): no changes
